In ChEMBL document CHEMBL3272195, “Synthesis and antimicrobial activity of certain 6H-1,2,4-oxadiazin-3(2H)-ones” (1977):
≈ marks a conversion by molar mass, not a printed value. Calls of active or inactive are those of the source. The calls are words filed in the database; no cut-off is given here.

How the values were obtained:
Pseudomonas aeruginosa [1] = assay: Antimicrobial activity against Pseudomonas aeruginosa after 24 hrs by broth dilution assay; type: functional
Staphylococcus aureus = assay: Antimicrobial activity against Staphylococcus aureus after 24 hrs by broth dilution assay; type: functional
Escherichia coli [2] = assay: Antimicrobial activity against Escherichia coli after 24 hrs by broth dilution assay; type: functional
Human alphaherpesvirus 1 = assay: Antiviral activity against Herpes simplex virus type 1; type: functional, organism-based
Human respirovirus 3 = assay: Antiviral activity against Parainfluenza virus 3; type: functional, organism-based
[3] = test system: Trichophyton mentagrophytes; assay: Antimicrobial activity against Trichophyton mentagrophytes after 48 hrs by broth dilution assay; type: functional
Candida albicans = assay: Antimicrobial activity against Candida albicans after 48 hrs by broth dilution assay; type: functional
Human rhinovirus A13 = assay: Antiviral activity against Rhinovirus A13; type: functional
Pseudomonas aeruginosa [4] = assay: Antimicrobial activity against Pseudomonas aeruginosa paper disc treated with 24 hrs urine sample from 100 mg/kg, po compound treated ICR mouse measured after 18 to 24 hrs by disc diffusion assay; type: functional, organism-based; set-up: dose 100 mg/kg
Escherichia coli [5] = assay: Antimicrobial activity against Escherichia coli paper disc treated with 24 hrs urine sample from 100 mg/kg, po compound treated ICR mouse measured after 18 to 24 hrs by disc diffusion assay; type: functional, organism-based; set-up: dose 100 mg/kg

Structure (SMILES) | MIC (Pseudomonas aeruginosa [1]) | MIC (Staphylococcus aureus) | MIC (Escherichia coli [2]) | Activity (Human alphaherpesvirus 1) | Activity (Human respirovirus 3) | MIC [3] | MIC (Candida albicans) | Activity (Human rhinovirus A13) | Activity (Pseudomonas aeruginosa [4]) | Activity (Escherichia coli [5])
CN1OCC(=S)NC1=O | > 400 µM | > 400 µM | > 400 µM | inactive | inactive | 160 µM (≈ 23.4 µg/mL) | 400 µM (≈ 58.5 µg/mL) | inactive | – | –
O=C1NC(=S)CON1Cc1ccccc1 | > 400 µM | > 400 µM | > 400 µM | inactive | inactive | 160 µM (≈ 35.6 µg/mL) | 320 µM (≈ 71.1 µg/mL) | inactive | – | –
O=C1CON(C(=O)OCc2ccccc2)C(=O)N1 | 20 µM (≈ 5 µg/mL) | 80 µM (≈ 20 µg/mL) | 20 µM (≈ 5 µg/mL) | inactive | inactive | > 400 µM | > 400 µM | inactive | inactive | inactive
O=C1N=C(NCc2ccccc2)CON1 | > 400 µM | 400 µM (≈ 82.1 µg/mL) | 320 µM (≈ 65.7 µg/mL) | inactive | inactive | > 400 µM | > 400 µM | inactive | – | –
NC1=NC(=O)NOC1 | 80 µM (≈ 9.21 µg/mL) | 320 µM (≈ 36.8 µg/mL) | 10 µM (≈ 1.15 µg/mL) | inactive | inactive | > 400 µM | > 400 µM | inactive | Active | Active
O=C1NOCC(=S)N1 | 20 µM (≈ 2.64 µg/mL) | 10 µM (≈ 1.32 µg/mL) | < 5 µM | inactive | inactive | 320 µM (≈ 42.3 µg/mL) | 320 µM (≈ 42.3 µg/mL) | inactive | inactive | inactive
CCOC(=O)CONC(N)=O | 320 µM (≈ 51.9 µg/mL) | 80 µM (≈ 13 µg/mL) | 160 µM (≈ 25.9 µg/mL) | – | – | > 400 µM | > 400 µM | – | – | –
CN(C)C1=NC(=O)NOC1 | > 400 µM | 320 µM (≈ 45.8 µg/mL) | 160 µM (≈ 22.9 µg/mL) | inactive | inactive | > 400 µM | > 400 µM | inactive | – | –
O=C1N=C(NO)CON1 | > 400 µM | > 400 µM | > 400 µM | inactive | inactive | > 400 µM | > 400 µM | inactive | – | –
CNC1=NC(=O)NOC1 | > 400 µM | 320 µM (≈ 41.3 µg/mL) | 320 µM (≈ 41.3 µg/mL) | inactive | inactive | 320 µM (≈ 41.3 µg/mL) | > 400 µM | inactive | – | –
NNC1=NC(=O)NOC1 | > 400 µM | > 400 µM | > 400 µM | inactive | inactive | > 400 µM | > 400 µM | inactive | – | –
O=C1N=C(NC(c2ccccc2)c2ccccc2)CON1 | 320 µM (≈ 90 µg/mL) | 160 µM (≈ 45 µg/mL) | 320 µM (≈ 90 µg/mL) | inactive | inactive | > 400 µM | > 400 µM | inactive | – | –
O=C1CONC(=O)N1 | 40 µM (≈ 4.64 µg/mL) | 20 µM (≈ 2.32 µg/mL) | 10 µM (≈ 1.16 µg/mL) | inactive | inactive | > 400 µM | > 400 µM | inactive | inactive | inactive
